test: in vitro; conditions: human, hela cells, % viability

First: CCNC(=O)C1(Cc2ccccc2-c2ccncc2)CCOCC1 [CBK285216]
Second: O=C(Nc1ccccc1C(=O)NCCN1CCOCC1)c1cccs1 [CBK270077]
The viability at 28.5 h, 10 µM of the first is higher: 100% for the first, 94.4% for the second.

Compared with `Cc1ccc2nc(N3CCCC(O)C3)c(CN3CCSCC3)cc2c1` (stereo not drawn) [CBK307000], `O=C(c1cccc(CN2CCN(c3nc(-c4ccccc4)ns3)CC2)c1)N1CCC(O)CC1` [CBK074709] is higher in viability at 28.5 h, 10 µM: 94.7% for the first, 110% for the second.

First: O=C1N(CN2CCN(c3cccc(C(F)(F)F)c3)CC2)c2ccccc2C12OCCCO2 [CBK294461]
Second: OCCNc1nc(N2CCN(Cc3ccccc3)CC2)nc2ccccc12 [CBK266667C]
The viability at 28.5 h, 10 µM of the first is higher: 99% for the first, 92.5% for the second.

Compared with `Cn1ncc(Nc2ccccc2)c1C(=O)O` [CBK013004], `CC(NC(=O)c1ccc(F)cc1Cl)c1ccccc1` (stereo not drawn) [CBK270317] is lower in viability at 28.5 h, 10 µM: 114% for the first, 89.3% for the second.

Compared with `Cc1noc(C)c1S(=O)(=O)NCC(=O)N1CCOCC1` [CBK034476], `COc1ccc(Br)cc1S(=O)(=O)NCCCN1CCOCC1` [CBK264050] is higher in viability at 28.5 h, 10 µM: 94.9% for the first, 103% for the second.

First: CN1C(=O)CC2(C1=O)C(=O)N(CCN1CCCC1=O)c1ccc(F)cc12 (stereo not drawn) [CBK075463]
Second: COc1cc2c(cc1CNS(=O)(=O)c1ccc3[nH]c(=O)[nH]c(=O)c3c1)CCC2 [CBK286396]
The viability at 28.5 h, 10 µM of the first is lower: 90.4% for the first, 98.7% for the second.

Compared with `COc1ccc(NC2=N[C@H]3[C@@H](O)[C@H](O)C[C@H](C(=O)N(C)Cc4ccccc4)[C@H]3S2)cc1` [CBK288950], `CC(C)(Cc1ccccc1)NCC(O)COc1ccc2c(c1)C1CCC2C1` (stereo not drawn) [CBK018228C] is lower in viability at 28.5 h, 10 µM: 96.7% for the first, 86.4% for the second.

Going from `O=C(O)CC1S/C(=N/N=C2/C(=O)Nc3ccccc32)N(c2ccc(O)cc2)C1=O` (stereo not drawn) [CBK263723] to `O=C(O)CCc1ccc(-c2cccs2)n1-c1ccc(C(=O)O)cc1` [CBK266016], the viability at 28.5 h, 10 µM falls from 93% to 90.9%.

Compared with `Cc1ccccc1-c1cncc(C2CCN(C(=O)CCOc3ccccc3)CC2)n1` [CBK286154], `O=C(NCCOc1ccccc1Cc1ccccc1)c1cncc(Br)c1` [CBK266581] is higher in viability at 28.5 h, 10 µM: 99% for the first, 103% for the second.

First: O=c1[nH]c(CSc2nnc(CCCOc3ccc(Cl)cc3Cl)o2)nc2ccccc12 [CBK268861]
Second: O=C(Nc1ccccc1C(=O)O)c1ccc(-c2ccc(Cl)cc2Cl)o1 [CBK078453]
The viability at 28.5 h, 10 µM of the first is lower: 97.2% for the first, 105% for the second.

Going from `COc1cccc(NC(=O)CCCC(=O)O)c1` [CBK261324] to `CC(=O)Nc1ccc(NC(=O)CCC(=O)O)cc1C` [CBK265395], the viability at 28.5 h, 10 µM falls from 98.1% to 95.3%.

First: NS(=O)(=O)c1ccc(NC(=O)/C=C/c2cccc([N+](=O)[O-])c2)cc1 [CBK261616]
Second: CCOc1ccc(C(=O)Nc2ccc(S(=O)(=O)N3CCN(C)CC3)cc2)cc1 [CBK269959]
The viability at 28.5 h, 10 µM of the first is higher: 99.5% for the first, 85.5% for the second.

Compared with `O=C(NC1CCCCC1)c1cc(S(=O)(=O)N2CCOCC2)ccc1Cl` [CBK261662], `O=c1cc(N2CCOCC2)oc2cccc(O)c12` [CBK016536] is lower in viability at 28.5 h, 10 µM: 96% for the first, 91.3% for the second.

Going from `CC(=O)NC(O)C(=O)c1cccs1` (stereo not drawn) [CBK027756] to `COC(=O)C(CCSC)NC(=O)c1cccs1` (stereo not drawn) [CBK057972], the viability at 28.5 h, 10 µM falls from 111% to 94%.

Compared with `CN(Cc1ccccc1)S(=O)(=O)c1ccc2c(c1)n(C)c(=O)n2C` [CBK266644], `CS(=O)(=O)c1ccc(-n2cc(-c3cccnc3)nn2)cc1` [CBK113061] is higher in viability at 28.5 h, 10 µM: 95.6% for the first, 104% for the second.

Going from `c1ccc2c(c1)CCC2Oc1cncc(N2CCNCC2)n1` (stereo not drawn) [CBK200005G] to `CN1CCC(N2CCN(C(=O)c3cncc(-c4[nH]nnc4-c4ccccc4)c3)CC2)CC1` [CBK160327], the viability at 28.5 h, 10 µM rises from 91% to 98.3%.

First: CN1CCN(CC(CC(=O)Nc2c(F)cccc2F)C(=O)O)CC1 (stereo not drawn) [CBK286867]
Second: CN1CCN(C(=O)Nc2cccc(-c3nc(-c4ccc(C#N)cc4)cnc3N)c2)CC1 [CBK116251]
The viability at 28.5 h, 10 µM of the first is higher: 92% for the first, 91.7% for the second.

Compared with `Cn1cc(C2CCCCCN2Cc2cc(Cl)ccc2O)cn1` (stereo not drawn) [CBK282941], `Cc1c(C(=O)N2CCCC(c3cc4ncccc4[nH]3)C2)cnn1C` (stereo not drawn) [CBK283420] is lower in viability at 28.5 h, 10 µM: 100% for the first, 94.8% for the second.

Going from `COc1ccc(CN(CCN2CCOCC2)C(=O)Nc2cccnc2)cc1OC` [CBK159379] to `O=C(COc1cccc2ccccc12)Nc1cccnc1` [CBK263015], the viability at 28.5 h, 10 µM rises from 93.2% to 115%.

First: O=C(O)C1CCCCC1C(=O)NCc1cccnc1 (stereo not drawn) [CBK261695]
Second: O=C(Nc1ccccc1)N1C[C@@H]2C[C@H](C1)c1c(-c3cccnc3)ccc(=O)n1C2 [CBK289193]
The viability at 28.5 h, 10 µM of the first is lower: 91.7% for the first, 92.3% for the second.

First: C=CCn1c(Cc2csc(NC(=O)c3ccc(S(C)(=O)=O)cc3)n2)n[nH]c1=S [CBK295340]
Second: COCCOC(=O)N1CCC(N(C)Cc2ccc(-c3ccc(S(C)(=O)=O)cc3)nc2)CC1 [CBK165258T]
The viability at 28.5 h, 10 µM of the first is higher: 97% for the first, 96.7% for the second.

Compared with `Nc1ccc2ccc(-c3ccncc3)nc2n1` [CBK067622], `Sc1nnc(-c2ccncc2)n1/N=C/c1c[nH]c2ccccc12` [CBK265272] is higher in viability at 28.5 h, 10 µM: 82.8% for the first, 85.8% for the second.

Compared with `Cc1nnc(SCC(=O)N/N=C/c2coc3ccccc3c2=O)n1-c1ccccc1` [CBK262842], `O=C(Nc1ccccc1)N1Cc2nc[nH]c2C[C@H]1c1nc(-c2ccccc2)no1` [CBK288997] is lower in viability at 28.5 h, 10 µM: 90.3% for the first, 84.3% for the second.

First: O=C(OCc1ccccc1)N1CCC(n2ccn(C(=O)CCC3CCCC3)c2=O)CC1 [CBK106670]
Second: O=C(O)c1cn(C2CC2)c2cc(N3CCN(C(=O)C4CCCO4)CC3)c(F)cc2c1=O (stereo not drawn) [CBK297139]
The viability at 28.5 h, 10 µM of the first is lower: 86.7% for the first, 97.7% for the second.

Going from `Cc1cc(C)c(NC(=O)CSc2nnc(-c3cccnc3)s2)c([N+](=O)[O-])c1` [CBK268929] to `Cc1csc2ncc(C(=O)Nc3ccc(Cl)c(Cl)c3)c(=O)n12` [CBK287459], the viability at 28.5 h, 10 µM rises from 102% to 104%.

Going from `Cc1ccc(S(=O)(=O)NCC(=O)Nc2ccc(Cl)cn2)cc1` [CBK091357] to `CS(=O)(=O)c1ccc(-c2ccc(COC3CCN(C(=O)Cc4cccc(C(F)(F)F)c4)CC3)cn2)cc1` [CBK162231T], the viability at 28.5 h, 10 µM falls from 105% to 102%.

Going from `COc1ccc(C(NC(=O)C2CCN(CCn3cnc4c3c(=O)n(C)c(=O)n4C)CC2)c2ccco2)cc1` (stereo not drawn) [CBK148308] to `O=C(CC1CC1)NC(c1ccccc1)c1ccccn1` (stereo not drawn) [CBK144108], the viability at 28.5 h, 10 µM rises from 85.8% to 103%.

First: Cc1cc(-c2nnc(NCc3ccnn3C)o2)c(C)o1 [CBK306446]
Second: Cc1ccc(Nc2nc(N)nc(CSc3nccn3C)n2)cc1 [CBK266468]
The viability at 28.5 h, 10 µM of the first is lower: 84.6% for the first, 113% for the second.

Compared with `COc1ccccc1CN(CC1CCNCC1)C(=O)Nc1c(C)noc1C` [CBK049739], `CC(c1nc(N)nc(N(C)C)n1)N(C)CCOc1ccccc1F` (stereo not drawn) [CBK306053] is lower in viability at 28.5 h, 10 µM: 94.7% for the first, 88.2% for the second.

Compared with `CC(=O)N1C[C@@H](c2ccsc2)[C@@H]2CN(Cc3ccccc3)CC[C@@H]21` [CBK284585], `CCn1cc(S(=O)(=O)NCC2(c3ccccc3)CCCC2)cn1` [CBK282768] is lower in viability at 28.5 h, 10 µM: 109% for the first, 97.2% for the second.

Compared with `COc1cc(-c2cncc(NC(C)CCCC(C)(C)O)n2)cc(OC)c1OC` (stereo not drawn) [CBK065481], `CCOC(=O)CNC1CCCCC1` [CBK023276C] is lower in viability at 28.5 h, 10 µM: 102% for the first, 91% for the second.

same assay, conditions: human, hela cells, % viability, bulk resorufin, single well

`NC(=O)Cn1cc(C(=O)COc2ccccc2)c2ccccc21` [CBK267650] showed a viability at 28.5 h, 10 µM of 95.2%.
